Tested on: maximal electroshock seizure (MEST) threshold in rodents
Test: MEST test (maximal electroshock seizure threshold)
Format: in vivo
Settings: 2 mg/kg p.o. at 2 h post-dose
Procedure: 2. MEST Test The maximal electroshock seizure (MEST) threshold test in rodents is particularly sensitive for detecting potential anticonvulsant properties^1. In this model, anticonvulsant agents elevate the threshold to electrically-induced seizures whilst proconvulsants lower the seizure threshold. Method for Mouse Model Mice (naive male, Charles River, U.K. CD-1 strain, 25-30 g) are randomly assigned to groups of 10-20 and dosed orally or intraperitoneally at a dose volume of 10 ml/kg with various doses of compound (0.3-300 mg/kg) or vehicle. Mice are then subjected at 30 or 60 min post dose to a single electroshock (0.1 sec, 50 Hz, sine wave form) administered via corneal electrodes. The mean current and standard error required to induce a tonic seizure in 50% (CC50) of the mice in a particular treatment group is determined by the ‘up and down’ method of Dixon and Mood (1948)^2. Statistical comparisons between vehicle- and drug-treated groups are made using the method of Litchfield and Wilcoxon (1949)^3. In control animals the CC50 is usually 14-18 mA. […] If a tonic convulsion does occur, then the current is decreased, and so on until all the animals in the group have been tested. Studies are carried out using a Hugo Sachs Electronik Constant Current Shock Generator with totally variable control of shock level from 0 to 300 mA and steps of 2 mA are usually used. Method for Rat Model The threshold for maximal (tonic hindlimb extension) electroshock seizures in male rats (Sprague Dawley, 80-150 g, 6 weeks old) was determined by a Hugo Sachs Electronik stimulator which delivered a constant current (0.3 sec duration; from 1-300 mA in steps of 5-20 mA). The procedure is similar to that outlined above for mouse and full details are as published by Upton et al,.^4 The percentage increase or decrease in CC50 for each group compared to the control is calculated. Drugs are suspended in 1% methyl cellulose.

SMILES | % increases in seizure threshold [%]
CCc1c(NC(=O)c2ccc(OC(C)C)c(C(C)=O)c2)ccc2c1CN(C)CC2(C)C [Example E48, N-(8-Ethyl-2,4,4-trimethyl-1,2,3,4-tetrahydroisoquinolin-7-yl)-3-acetyl-4-iso-propyloxybenzamide] | 240
COc1ccc(C(=O)Nc2ccc3c(c2)CN(C)CC3(C)C)cc1Br [Example E15, N-(2,4,4-Trimethyl-1,2,3,4-tetrahydroisoquinolin-7-yl)-3-bromo-4-methoxybenzamide] | 263
COc1ccc(C(=O)Nc2ccc3c(c2)CN(C)C(C)(C)C3)cc1C(F)(F)F [Example E69, N-(2,3,3-Trimethyl-1,2,3,4-tetrahydroisoquinolin-7-yl)4-methoxy-3-trifluoromethylbenzamide] | 340
COc1cc(OC(C)C)c(Cl)cc1C(=O)Nc1cccc2c1C(C)(C)CN(C)C2 [Example E29, N-(2,4,4-Trimethyl-1,2,3,4-tetrahydroisoquinolin-5-yl)-5-chloro-2-methoxy-4-iso-propyloxybenzamide] | 310
COc1cc(C(C)C)c(C(F)(F)F)cc1C(=O)Nc1cccc2c1C(C)(C)CN(C)C2 [Example E34, N-(2,4,4-Trimethyl-1,2,3,4-tetrahydroisoquinolin-5-yl)-2-methoxy-4-iso-propyl-5-trifluoromethylbenzamide] | 280
COc1ccc(C(=O)Nc2ccc3c(c2)CN(C)CC3(C)C)cc1I [Example E17, N-(2,4,4-Trimethyl-1,2,3,4-tetrahydroisoquinolin-7-yl)-3-iodo-4-methoxybenzamide] | 314
